Experimental data from PMC11858854, “In Vitro and In Vivo Assessment of Pharmacokinetic Profile of Peramivir in the Context of Inhalation Therapy” (Pharmaceuticals, 2025).

Columns and labels:
[1] = tested on: Caco-2 cell model; set-up: method as in PMID 28000173; conditions: Caco-2, 10 μM; cited from earlier work
[2] = tested on: A549 cells; assay: Uptake study by A549 cells; format: in vitro ADME, human; conditions: 10 µM, 37 °C or 4 °C
Experimental: A549 cells were cultured in DMEM medium supplemented with 10% FBS and PS (100 U/mL) at 37 °C in a humidified 5% CO2 incubator. Cells were seeded on 24-well plates at a density of 3 × 10^4 cells/well. For the uptake assay, the DMEM media were removed, and the cells were washed with pre-warmed Hank’s buffer three times (1 mL/well). The third washing buffer was retained in the wells, and the plate was placed in an incubator at 37 °C or 4 °C for 30 min prior to the initiation of the uptake experiment. Following the removal of the washing buffer, 200 μL of pre-warmed test drug solution (Hank’s buffer containing the 10 µM peramivir) was added into each well, and the plates were incubated at 37 °C or 4 °C for 2, 5, and 15 min. Then the incubation solution was removed, and the cells were washed with ice-cold transportation buffer three times (1 mL/well). A total of 0.2 mL pure water was added to each well to lyse the cells by repeated freezing and thawing (−196 °C~37 °C, three times). The cell lysate was collected and stored at −40 °C for LC-MS/MS analysis and protein measurement.

[3] = tested on: NCI-H441 cell model; assay: Bidirectional transport, NCI-H441 air-liquid culture model; format: in vitro ADME, human; conditions: NCI-H441, 2 μM
Experimental: NCI-H441 cells were cultured in RPMI-1640 medium (Gibco, Thermo, CA, USA) supplemented with 10% FBS and PS (100 U/mL) at 37 °C in a humidified 5% CO2 incubator, and the medium was changed every other day. […] Then, 850 μL of complete medium (containing 200 nM dexamethasone) was added to the basolateral chamber. […] Subsequently, an air-interfaced culture (AIC) was initiated by supplying 650 μL of culture medium to the basolateral chamber only. The culture medium was replaced every other day.
We removed the liquid from the apical and basolateral of the Transwell, rinsed the cells three times with a buffer containing HBSS, 10 mM Hepes, and 0.1% BSA (Buffer A), and then added Buffer A (100 µL for the apical side and 600 µL for the basolateral side) for pre-incubation for 30 min at 37 °C. For the transport studies in the apical to basolateral (A-B) direction, 100 μL of pre-warmed test solution (Buffer A containing 2 µM positive control drugs or peramivir) was added to the apical side, while 600 μL of pre-warmed assay buffer, a buffer containing HBSS, 10 mM Hepes, and 1% BSA (Buffer B), was added to the basolateral compartment.

[4] = tested on: LLC-PK1 cells; assay: Permeability assay, LLC-PK1-MOCK cells; format: in vitro ADME; conditions: LLC-PK1, 2 μM, Mean ± SD, n = 3
Experimental: When the cell transport system was mature in culture, experiments were performed. […] When assessing permeability in basolateral to apical (B-A) direction, 100 μL of pre-warmed Buffer B and 600 μL of pre-warmed test solutions were added to the apical and basolateral compartments, respectively. The Transwells® were placed in an incubator at 37 °C and 5% CO2 for a duration of 2 h. At the end of the incubation period, the samples in the apical and basolateral sides were collected separately and were briefly kept at a temperature of −40 °C for LC-MS/MS analysis. […] The cells were transferred to Transwell® plates (Corning, NY, USA) at a density of 2 × 10^4 cells/well with 200 μL of cell suspension per well, while 850 μL of complete medium was added to the basolateral chamber. […] The samples were collected separately and were briefly kept at a temperature of −40 °C for LC-MS/MS analysis.

[5] = target: T1, human OCTN1 (Homo sapiens, UniProt Q9H015); assay: Uptake study, MDCK cells overexpressing OCTN1; format: in vitro ADME
T1 construct: Huidi Jiang, Zhejiang University; host or cells: MDCK (MDCK-OCTN1); control MDCK-MOCK
T1 sequence (Q9H015 1-551): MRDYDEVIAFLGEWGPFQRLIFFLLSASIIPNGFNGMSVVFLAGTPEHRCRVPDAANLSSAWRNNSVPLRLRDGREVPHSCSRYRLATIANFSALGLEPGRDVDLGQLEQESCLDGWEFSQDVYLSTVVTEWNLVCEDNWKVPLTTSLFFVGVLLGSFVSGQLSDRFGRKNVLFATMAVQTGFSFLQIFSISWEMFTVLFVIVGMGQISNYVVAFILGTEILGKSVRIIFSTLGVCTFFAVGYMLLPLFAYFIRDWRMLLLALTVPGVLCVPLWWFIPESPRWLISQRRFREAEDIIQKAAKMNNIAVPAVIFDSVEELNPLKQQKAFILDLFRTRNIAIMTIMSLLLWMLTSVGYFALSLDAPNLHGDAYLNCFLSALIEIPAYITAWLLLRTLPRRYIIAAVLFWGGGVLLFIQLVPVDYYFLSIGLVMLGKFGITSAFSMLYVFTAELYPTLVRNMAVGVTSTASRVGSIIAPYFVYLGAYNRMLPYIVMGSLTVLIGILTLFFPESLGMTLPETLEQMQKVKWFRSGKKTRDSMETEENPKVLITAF
Experimental: All cells (HEK293-MOCK, HEK293-OCT1, HEK293-OCT2, MDCK-MOCK, MDCK-OCTN1, and MDCK-OCTN2) were cultured in DMEM medium supplemented with 10% FBS and PS (100 U/mL), at 37 °C in a humidified 5% CO2 incubator. Cells were seeded on 24-well plates at a density of 1 × 10^4 cells/well. For the uptake assay, the DMEM media were removed, and the cells were washed with pre-warmed Hank’s buffer three times (1 mL/well). Subsequent addition of inhibitor-free/inhibitor-containing buffer was pre-incubated for 30 min at 37 °C prior to the initiation of the uptake experiment. After the pre-incubating buffer was removed, 200 μL of pre-warmed test drugs solution (Hank’s buffer containing 10 µM and 50 µM peramivir) or a mixture of test drugs and inhibitor was added into each well, and the plates were incubated at 37 °C for 5 min. At the end of incubation, cells were washed and lysed as described above. The cell lysate was collected and stored at −40 °C for LC-MS/MS analysis and protein measurement. The negative control (MOCK cells) and positive control were included simultaneously.

[6] = set-up: method as in PMID 15196586; conditions: cited from earlier work
[7] = oral; cited from earlier work

In the case of `CCC(CC)[C@H](NC(C)=O)[C@@H]1[C@H](O)[C@@H](C(=O)O)C[C@H]1N=C(N)N` [Peramivir], the Papp [1] is given as 3.29 ± 0.739 × 10^−7 cm·s^−1, the “uptake rate in A549 cell model” value [2] is given as “low” and the ER [3] is given as 1.11. The “Papp A-B” value ([3]; Mean ± SD, n = 3) was 1.15 ± 0.16 ×10−6 cm/s, the “Papp B-A” value ([3]; Mean ± SD, n = 3) was 1.28 ± 0.36 ×10−6 cm/s and the “Papp A-B” value [4] was “BLQ”. For the same compound, the “Papp B-A” value [4] was 0.21 ± 0.04 ×10−6 cm/s, the OCTN1 substrate status ([5]; MDCK-OCTN1) was “does not conclusively establish peramivir as a substrate for OCTN1” and the “transporter-mediated uptake ratio (UR value)” value ([5]; MDCK-OCTN1, 50 μM) was 3.19. For the same compound, the “inhibition ratio (IR value)” value ([5]; MDCK-OCTN1, 50 μM, inhibitor quinidine (500 μM)) was 40.22%, the BDDCS category ([6]; high solubility/low metabolism) was “BDDCS-III” and the BCS category ([6]; high solubility/low permeability) was “BCS-III”. For the same compound, the oral bioavailability [7] was 3%.
